Reference: ChEMBL document CHEMBL5528050, “Discovery of a Novel Series of Homo sapiens Caseinolytic Protease P Agonists for Colorectal Adenocarcinoma Treatment via ATF3-Dependent Integrated Stress Response” (J Med Chem, 2024)
The source made the active and inactive calls. The rule behind the calls is not given here.

Tests used:
[1] = molecular target: ATP-dependent Clp protease proteolytic subunit (Escherichia coli (strain K12)) (UniProt P0A6G7); experiment: Agonist activity at Escherichia coli ClpP using Suc-LY-AMC as substrate at 10 to 100 uM measured every 5 mins for 1 hr by fluorescence based analysis; settings: dose 10-100 µM
[2] = molecular target: T1, ATP-dependent Clp protease proteolytic subunit (Staphylococcus aureus (strain NCTC 8325)) (UniProt Q2G036); experiment: Agonist activity at Staphylococcus aureus ClpP using Suc-LY-AMC as substrate at 10 to 100 uM measured every 5 mins for 1 hr by fluorescence based analysis; settings: dose 10-100 µM
T1 sequence (whole entry): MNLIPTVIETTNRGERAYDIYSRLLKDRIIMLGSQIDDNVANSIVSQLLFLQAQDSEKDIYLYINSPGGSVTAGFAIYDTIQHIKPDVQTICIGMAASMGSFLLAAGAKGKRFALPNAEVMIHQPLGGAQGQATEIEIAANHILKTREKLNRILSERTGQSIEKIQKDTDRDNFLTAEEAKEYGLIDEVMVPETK

[3] = tested on: Staphylococcus aureus; experiment: Antibacterial activity against Staphylococcus aureus ATCC33591 assessed as reduction in bacterial growth; format: functional
[4] = tested on: Escherichia coli; experiment: Antibacterial activity against Escherichia coli ATCC25922 assessed as reduction in bacterial growth; format: functional
[5] = Antiproliferative activity against human HCoEpiC cells assessed as inhibition of cell growth measured after 72 hrs by CCK-8 method; format: toxicity, cell-based
[6] = tested on: HCT-116; experiment: Inhibition of mitochondrial function in human HCT-116 cells assessed as reduction in ATP production; format: functional, cell-based
[7] = tested on: Cell membrane; experiment: Induction of mitochondrial membrane potential loss in human HCT-116 cells assessed as increase in green fluorescence at high dose measured after 48 hrs by JC-1 staining based microscopy analysis; format: cell membranes
[8] = tested on: HCT-116; experiment: Antiproliferative activity against human HCT-116 cells assessed reduction in clone formation measured after 48 hrs by crystal violet staining based analysis; format: functional, cell-based
[9] = tested on: HCT-116; experiment: Induction of apoptosis in human HCT-116 cells assessed as downregulation of bcl-2 expression at 0.5 to 2 uM measured after 48 hrs by Western blot analysis; format: functional, cell-based; settings: dose 0.5-2 µM
[10] = tested on: HCT-116; experiment: Induction of cell cycle arrest in human HCT-116 cells assessed as increase in number of cells at G2 phase at 0.5 uM measured after 48 hrs by PI staining based flow cytometry analysis; format: functional
[11] = tested on: HCT-116; experiment: Induction of cell cycle arrest in human HCT-116 cells assessed as increase in number of cells at G2 phase at high dose measured after 48 hrs by PI staining based flow cytometry analysis; format: functional
[12] = Acute toxicity in BALB/c mouse assessed as effect on heart at 50 mg/kg, iv administered as single dose measured upto 14 days by H and E staining based analysis; format: organism-based; settings: in vivo, 336 h, time < 14 day
[13] = Acute toxicity in BALB/c mouse assessed as reduction in body weight at low dose iv measured upto 21 days relative to control; format: organism-based; design: scale not given: the % may be the effect or the level left; settings: in vivo, 504 h, time < 21 day
[14] = Acute toxicity in BALB/c mouse assessed as increase in body weight at 5 mg/kg, iv measured upto 21 days relative to control; format: organism-based; settings: in vivo, 504 h, time < 21 day
[15] = tested on: HCT-116; experiment: Antitumor activity against human HCT-116 cells xenografted in BALB/c nude mouse model assessed as reduction in tumor volume at 1.25 mg/kg,iv administered twice weekly and measured upto 21 days relative to control; format: functional; design: scale not given: the % may be the effect or the level left; settings: time <= 21 day
[16] = tested on: HCT-116; experiment: Antitumor activity against human HCT-116 cells xenografted in BALB/c nude mouse model assessed as reduction in tumor volume at 5 mg/kg,iv and measured upto 21 days relative to control; format: functional; design: scale not given: the % may be the effect or the level left; settings: time <= 21 day
[17] = tested on: HCT-116; experiment: Antitumor activity against human HCT-116 cells xenografted in BALB/c nude mouse model assessed as reduction in tumor weight at high dose administered as iv twice weekly and measured upto 21 days; format: functional; settings: time <= 21 day
[18] = tested on: HCT-116; experiment: Antitumor activity against human HCT-116 cells xenografted in BALB/c nude mouse model assessed as reduction in SDHB expression at upto 5 mg/kg, iv administered twice weekly by Western blot analysis; format: functional, organism-based
[19] = tested on: HCT-116; experiment: Antitumor activity against human HCT-116 cells xenografted in BALB/c nude mouse model assessed as decrease in Bcl-2 expression at upto 5 mg/kg, iv administered twice weekly by Western blot analysis; format: functional, organism-based
[20] = tested on: HCT-116; experiment: Antitumor activity against human HCT-116 cells xenografted in BALB/c nude mouse model assessed as increase in Bax expression at upto 5 mg/kg, iv administered twice weekly by Western blot analysis; format: functional, organism-based
[21] = Toxicity in BALB/c nude mouse assessed as effect on heart at 1.25 to 5 mg/kg, iv administered twice weekly and measured after 21 days by H and E staining based analysis; format: organism-based; settings: in vivo, 504 h, dose 1.25-5 mg/kg, time 21 day
[22] = Toxicity in BALB/c nude mouse assessed as effect on liver at 1.25 to 5 mg/kg, iv administered twice weekly and measured after 21 days by H and E staining based analysis; format: organism-based; settings: in vivo, 504 h, dose 1.25-5 mg/kg, time 21 day
[23] = Toxicity in BALB/c nude mouse assessed as effect on spleen at 1.25 to 5 mg/kg, iv administered twice weekly and measured after 21 days by H and E staining based analysis; format: organism-based; settings: in vivo, 504 h, dose 1.25-5 mg/kg, time 21 day
[24] = Toxicity in BALB/c nude mouse assessed as effect on kidney at 1.25 to 5 mg/kg, iv administered twice weekly and measured after 21 days by H and E staining based analysis; format: organism-based; settings: in vivo, 504 h, dose 1.25-5 mg/kg, time 21 day
[25] = Clearance in Sprague-Dawley rat at 10 mg/kg, iv by LC-MS/MS analysis; format: ADME, organism-based; settings: in vivo
[26] = Cmax in Sprague-Dawley rat at 10 mg/kg, po by LC-MS/MS analysis; format: ADME, organism-based; settings: in vivo
[27] = Oral bioavailability in Sprague-Dawley rat at 10 mg/kg by LC-MS/MS analysis; format: ADME, organism-based; settings: in vivo
[28] = Metabolic stability in rat liver microsomes assessed as half life at 1 uM measured upto 60 mins in presence of NADPH regenerating system by LC-MS/MS analysis; format: ADME, Microsome
[29] = tested on: HCT-116; experiment: Upregulation of ATF3 expression in human HCT-116 cells measured after 48 hrs by Western blot analysis; format: functional, cell-based
[30] = tested on: HCT-116; experiment: Upregulation of DDIT3 expression in human HCT-116 cells measured after 48 hrs by Western blot analysis; format: functional, cell-based
[31] = tested on: HCT-116; experiment: Upregulation of ATF3 mRNA expression in human HCT-116 cells by RT-PCR analysis; format: functional, cell-based
[32] = tested on: HCT-116; experiment: Upregulation of DDIT3 mRNA expression in human HCT-116 cells by RT-PCR analysis; format: functional, cell-based
[33] = tested on: HCT-116; experiment: Effect on DDIT4 expression in ClpP knockdown human HCT-116 cells at 2 uM measured after 48 hrs by Western blot analysis; format: functional, cell-based
[34] = tested on: HCT-116; experiment: cells; settings: Homo sapiens, HCT-116, 72 h
Description: Antiproliferative activity against human HCT-116 cells assessed as inhibition of cell growth measured after 72 hrs by CCK-8 method

[35] = tested on: SW-620; experiment: cells; settings: Homo sapiens, SW-620, 72 h
Description: Antiproliferative activity against human SW-620 cells assessed as inhibition of cell growth measured after 72 hrs by CCK-8 method

[36] = tested on: HCT-15; experiment: cells; settings: Homo sapiens, HCT-15, 72 h
Description: Antiproliferative activity against human HCT-15 cells assessed as inhibition of cell growth measured after 72 hrs by CCK-8 method

[37] = tested on: SW480; experiment: cells; settings: Homo sapiens, SW480, 72 h
Description: Antiproliferative activity against human SW480 cells assessed as inhibition of cell growth measured after 72 hrs by CCK-8 method

Chain of ATP-dependent Clp protease proteolytic subunit (Escherichia coli (strain K12)) (P0A6G7 whole entry): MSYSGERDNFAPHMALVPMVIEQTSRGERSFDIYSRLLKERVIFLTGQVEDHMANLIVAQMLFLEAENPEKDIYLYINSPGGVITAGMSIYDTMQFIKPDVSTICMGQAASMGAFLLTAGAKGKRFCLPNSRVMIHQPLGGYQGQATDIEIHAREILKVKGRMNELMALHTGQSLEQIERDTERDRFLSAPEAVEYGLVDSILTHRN

With `N#Cc1cccc(CN2CCC=C(C(=O)NCc3ccc(C(F)(F)F)cc3)C2)c1` as the compound, how does the Activity [1] read?
Its Activity is “inactive”.

What about the Activity [2] of the same compound?
Its Activity is “inactive”.

What about the MIC [3] of the same compound?
The MIC was > 128 µg/mL.

And the MIC [4]?
Its MIC is > 128 µg/mL.

And the IC50 at 72 h [5]?
The IC50 at 72 h was 75.2 µM.

And the inhibition [6]?
Its inhibition is “Active”.

What about the Activity [7] of the same compound?
Its Activity is “Active”.

And the Activity [8]?
Its Activity is “Dose-Dependent Effect”.

What about the Activity [9] of the same compound?
Its Activity is “Active”.

And the Activity [10]?
The Activity was 20%.

What about the Activity [11] of the same compound?
The Activity was ~40%.

And the Activity [12]?
The Activity was “Non-Toxic”.

And the Activity [13]?
Its Activity is 10%.

What about the Activity [14] of the same compound?
The Activity was “Toxic”.

What about the Activity [15] of the same compound?
The Activity was 55.1%.

What about the Activity [16] of the same compound?
Its Activity is 83.6%.

What about the Activity [17] of the same compound?
The Activity was 300 mg.

What about the Activity [18] of the same compound?
The Activity was “Active”.

And the Activity [19]?
The Activity was “Active”.

And the Activity [20]?
Its Activity is “Active”.

What about the Activity [21] of the same compound?
Its Activity is “Non-Toxic”.

What about the Activity [22] of the same compound?
The Activity was “Non-Toxic”.

And the Activity [23]?
The Activity was “Non-Toxic”.

And the Activity [24]?
The Activity was “Non-Toxic”.

And the CL [25]?
Its CL is 2.172 mL/min/kg.

What about the Cmax [26] of the same compound?
Its Cmax is 137 ng/mL.

And the bioavailability [27]?
The bioavailability was 54.2%.

And the half-life at 1 µM [28]?
The half-life at 1 µM was 18 min.

What about the Activity [29] of the same compound?
The Activity was “Active”.

And the Activity [30]?
Its Activity is “Active”.

And the Activity [31]?
The Activity was “Active”.

What about the Activity [32] of the same compound?
Its Activity is “Active”.

And the Activity [33]?
Its Activity is “inactive”.

What about the IC50 [34] of the same compound?
Its IC50 is 1 µM.

And the IC50 [35]?
Its IC50 is 1.5 µM.

What about the IC50 [36] of the same compound?
The IC50 was 3.5 µM.

What about the IC50 [37] of the same compound?
The IC50 was 5.4 µM.
